The text below walks through data of the supplement of paper PMC10307832.

Common to all, as to test: relative viability (nuclei count vs DMSO), 5 days (fraction); higher = more cells survive
Compound in assay [1]: CC(O)(CS(=O)(=O)c1ccc(F)cc1)C(=O)Nc1ccc(C#N)c(C(F)(F)F)c1 [Bicalutamide] + CS(=O)(=O)N1CCN(Cc2cc3nc(-c4cccc5[nH]ncc45)nc(N4CCOCC4)c3s2)CC1 [Pictilisib] (partner 1 µM)
In outline:
(§1)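 Lung cancer cell lines in 1536-well plates got either a single drug or a fixed anchor-drug dose together with five library-drug doses (not always all listed) in √10 steps, by pin tool, on the day after seeding. Nuclei were counted after 5 days, and relative viability is the treated-to-vehicle ratio of nuclei counts. Values are medians of duplicate plates.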

Compound in assay [2]: CC(O)(CS(=O)(=O)c1ccc(F)cc1)C(=O)Nc1ccc(C#N)c(C(F)(F)F)c1 [Bicalutamide] + CC(=O)c1c(C)c2cnc(Nc3ccc(N4CCNCC4)cn3)nc2n(C2CCCC2)c1=O [Palbociclib] (partner 0.5 µM)
The method in brief: as §1

Compound in assay [3]: CC(O)(CS(=O)(=O)c1ccc(F)cc1)C(=O)Nc1ccc(C#N)c(C(F)(F)F)c1 [Bicalutamide] + O=C(c1cc(Cc2n[nH]c(=O)c3ccccc23)ccc1F)N1CCN(C(=O)C2CC2)CC1 [Olaparib] (partner 8 µM)
In outline: as §1

Compound in assay [4]: C(C(=O)C(=O)O)Br [Bromopyruvate] + CC(=O)c1c(C)c2cnc(Nc3ccc(N4CCNCC4)cn3)nc2n(C2CCCC2)c1=O [Palbociclib] (partner 0.5 µM)
The method in brief:
as §1

In the case of NCI-H2347, the relative viability in assay [1] (first compound 0.08 µM) was 0.735; in assay [1] (first compound 0.253 µM) it was 0.728; in assay [1] (first compound 0.8 µM), 0.876; in assay [1] (first compound 2.53 µM) it was 0.632; in assay [2] (first compound 0.08 µM), 0.473; in assay [2] (first compound 0.253 µM), 0.468. The relative viability in assay [2] (first compound 0.8 µM) stood at 0.446; in assay [2] (first compound 2.53 µM), 0.399; in assay [3] (first compound 0.08 µM), 0.518; in assay [3] (first compound 0.253 µM) it was 0.555; in assay [3] (first compound 0.8 µM), 0.62; in assay [3] (first compound 2.53 µM), 0.54. Besides, the relative viability in assay [4] (first compound 1 µM) amounted to 0.44; in assay [4] (first compound 3.162 µM), 0.493; in assay [4] (first compound 10 µM) it was 0.399; in assay [4] (first compound 31.62 µM), 0.405; in assay [4] (first compound 100 µM) it was 0.448.
On to NCI-H2405, for which the relative viability in assay [1] (first compound 0.08 µM) came out at 0.478; in assay [1] (first compound 0.253 µM), 0.421; in assay [1] (first compound 0.8 µM) it was 0.556; in assay [1] (first compound 2.53 µM) it was 0.368; in assay [2] (first compound 0.08 µM), 0.555; in assay [2] (first compound 0.253 µM), 0.506. For the same cell line, the relative viability in assay [2] (first compound 0.8 µM) came to 0.581; in assay [2] (first compound 2.53 µM), 0.486; in assay [3] (first compound 0.08 µM), 0.947; in assay [3] (first compound 0.253 µM), 0.83; in assay [3] (first compound 0.8 µM) it was 0.919; in assay [3] (first compound 2.53 µM) it was 0.842. Further, the relative viability in assay [4] (first compound 1 µM) was determined as 0.51; in assay [4] (first compound 3.162 µM), 0.53; in assay [4] (first compound 10 µM), 0.549; in assay [4] (first compound 100 µM), 0.458.
For the cell line NCI-H3122, the relative viability came to 0.665 in assay [1] (first compound 0.08 µM); 0.645 in assay [1] (first compound 0.253 µM); 0.676 in assay [1] (first compound 0.8 µM); 0.652 in assay [1] (first compound 2.53 µM); 0.193 in assay [2] (first compound 0.08 µM); 0.183 in assay [2] (first compound 0.253 µM). In addition, the relative viability in assay [2] (first compound 0.8 µM) was 0.201; in assay [2] (first compound 2.53 µM), 0.181; in assay [3] (first compound 0.08 µM), 0.536; in assay [3] (first compound 0.253 µM), 0.657; in assay [3] (first compound 0.8 µM), 0.712; in assay [3] (first compound 2.53 µM) it was 0.617. Also, the relative viability in assay [4] (first compound 1 µM) is 0.167; in assay [4] (first compound 3.162 µM), 0.202; in assay [4] (first compound 10 µM), 0.197; in assay [4] (first compound 31.62 µM), 0.178; in assay [4] (first compound 100 µM) it was 0.13.
With PC-3 [JPC-3], the relative viability in assay [1] (first compound 0.08 µM) stood at 0.76; in assay [1] (first compound 0.253 µM) it was 0.56; in assay [1] (first compound 0.8 µM), 0.822; in assay [1] (first compound 2.53 µM), 0.723; in assay [2] (first compound 0.08 µM), 0.556; in assay [2] (first compound 0.253 µM) it was 0.576. Also, the relative viability in assay [2] (first compound 0.8 µM) turned out to be 0.567; in assay [2] (first compound 2.53 µM) it was 0.552; in assay [3] (first compound 0.08 µM) it was 1.22; in assay [3] (first compound 0.253 µM), 1.09; in assay [3] (first compound 0.8 µM) it was 1.16; in assay [3] (first compound 2.53 µM), 1.24. The relative viability in assay [4] (first compound 1 µM) amounted to 0.548; in assay [4] (first compound 10 µM), 0.537; in assay [4] (first compound 100 µM), 0.536.
For the cell line PC-14, the relative viability in assay [1] (first compound 0.08 µM) was 0.894; in assay [1] (first compound 0.253 µM), 0.652; in assay [1] (first compound 0.8 µM) it was 0.707; in assay [1] (first compound 2.53 µM), 0.659; in assay [2] (first compound 0.08 µM), 0.583; in assay [2] (first compound 0.253 µM) it was 0.466. The relative viability was 0.677 in assay [2] (first compound 0.8 µM); 0.422 in assay [2] (first compound 2.53 µM); 0.346 in assay [3] (first compound 0.08 µM); 0.3 in assay [3] (first compound 0.253 µM); 0.274 in assay [3] (first compound 0.8 µM); 0.271 in assay [3] (first compound 2.53 µM). For the same cell line, the relative viability in assay [4] (first compound 1 µM) was found to be 0.577; in assay [4] (first compound 3.162 µM) it was 0.538; in assay [4] (first compound 10 µM) it was 0.686; in assay [4] (first compound 31.62 µM) it was 0.573; in assay [4] (first compound 100 µM) it was 0.411.
As to RERF-LC-KJ, the relative viability came to 0.628 in assay [1] (first compound 0.08 µM); 0.506 in assay [1] (first compound 0.253 µM); 0.634 in assay [1] (first compound 0.8 µM); 0.613 in assay [1] (first compound 2.53 µM); 1.08 in assay [2] (first compound 0.08 µM); 1.05 in assay [2] (first compound 0.253 µM). Further, the relative viability in assay [2] (first compound 0.8 µM) stood at 1.17; in assay [2] (first compound 2.53 µM), 0.865; in assay [3] (first compound 0.08 µM), 0.979; in assay [3] (first compound 0.253 µM), 1.04; in assay [3] (first compound 0.8 µM) it was 0.962; in assay [3] (first compound 2.53 µM) it was 0.768. Moreover, the relative viability in assay [4] (first compound 1 µM) is 1.04; in assay [4] (first compound 3.162 µM), 1.18; in assay [4] (first compound 10 µM), 1.19; in assay [4] (first compound 31.62 µM), 1.14; in assay [4] (first compound 100 µM), 0.966.
As to SK-LU-1, the relative viability in assay [1] (first compound 0.08 µM) worked out at 0.6; in assay [1] (first compound 0.253 µM) it was 0.503; in assay [1] (first compound 0.8 µM), 0.715; in assay [1] (first compound 2.53 µM), 0.59; in assay [2] (first compound 0.08 µM), 0.403; in assay [2] (first compound 0.253 µM), 0.452. Besides, the relative viability in assay [2] (first compound 0.8 µM) was found to be 0.43; in assay [2] (first compound 2.53 µM) it was 0.378; in assay [3] (first compound 0.08 µM) it was 0.502; in assay [3] (first compound 0.253 µM), 0.482; in assay [3] (first compound 0.8 µM), 0.633; in assay [3] (first compound 2.53 µM), 0.486. The relative viability in assay [4] (first compound 1 µM) stood at 0.372; in assay [4] (first compound 3.162 µM) it was 0.363; in assay [4] (first compound 10 µM) it was 0.365; in assay [4] (first compound 31.62 µM) it was 0.346; in assay [4] (first compound 100 µM), 0.428.
With SK-MES-1, the relative viability in assay [1] (first compound 0.08 µM) worked out at 0.351; in assay [1] (first compound 0.253 µM) it was 0.39; in assay [1] (first compound 0.8 µM), 0.382; in assay [1] (first compound 2.53 µM), 0.357; in assay [2] (first compound 0.08 µM), 0.319; in assay [2] (first compound 0.253 µM), 0.3. In addition, the relative viability in assay [2] (first compound 0.8 µM) was found to be 0.3; in assay [2] (first compound 2.53 µM), 0.281; in assay [3] (first compound 0.08 µM), 0.825; in assay [3] (first compound 0.253 µM) it was 0.711; in assay [3] (first compound 0.8 µM) it was 0.773; in assay [3] (first compound 2.53 µM), 0.561. Besides, the relative viability in assay [4] (first compound 1 µM) was determined as 0.352; in assay [4] (first compound 3.162 µM), 0.344; in assay [4] (first compound 10 µM), 0.29; in assay [4] (first compound 31.62 µM), 0.32; in assay [4] (first compound 100 µM) it was 0.319.
As for SW 1573, the relative viability was determined as 0.564 in assay [1] (first compound 0.08 µM); 0.475 in assay [1] (first compound 0.253 µM); 0.461 in assay [1] (first compound 0.8 µM); 0.535 in assay [1] (first compound 2.53 µM); 0.418 in assay [2] (first compound 0.08 µM); 0.451 in assay [2] (first compound 0.253 µM). Also, the relative viability was found to be 0.457 in assay [2] (first compound 0.8 µM); 0.351 in assay [2] (first compound 2.53 µM); 0.542 in assay [3] (first compound 0.08 µM); 0.525 in assay [3] (first compound 0.253 µM); 0.428 in assay [3] (first compound 0.8 µM); 0.472 in assay [3] (first compound 2.53 µM). For the same cell line, the relative viability in assay [4] (first compound 1 µM) was 0.401; in assay [4] (first compound 3.162 µM), 0.395; in assay [4] (first compound 10 µM), 0.373; in assay [4] (first compound 31.62 µM), 0.266; in assay [4] (first compound 100 µM), 0.0467.
